Measured values reported in PubChem BioAssay (NCI).
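Assay format: 96-well plates, 48-hour exposure. Here, GI50 denotes the concentration required for 50% inhibition of growth. The concentration for full growth arrest is given as TGI.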

Experiments:
Assay in all cases: DTP human tumour cell line panel, 48 h
HOP-92 NSCLC = test system: HOP-92 NSCLC
A549 NSCLC = test system: A549 NSCLC
HCT-116 colon = test system: HCT-116 colon
HCC-2998 colon = test system: HCC-2998 colon
SF-295 CNS = test system: SF-295 CNS
MDA-MB-435 = test system: MDA-MB-435
OVCAR-8 ovarian = test system: OVCAR-8 ovarian
T-47D breast = test system: T-47D breast
SF-539 CNS = test system: SF-539 CNS
SK-OV-3 ovarian = test system: SK-OV-3 ovarian
OVCAR-3 ovarian = test system: OVCAR-3 ovarian
M14 melanoma = test system: M14 melanoma
OVCAR-4 ovarian = test system: OVCAR-4 ovarian
RPMI-8226 leukemia = test system: RPMI-8226 leukemia
BT-549 breast = test system: BT-549 breast
SNB-19 CNS = test system: SNB-19 CNS
IGROV1 ovarian = test system: IGROV1 ovarian
SW-620 colon = test system: SW-620 colon
A498 renal = test system: A498 renal
TK-10 renal = test system: TK-10 renal
NCI-H460 lung = test system: NCI-H460 lung
K-562 leukemia = test system: K-562 leukemia
SK-MEL-2 melanoma = test system: SK-MEL-2 melanoma
NCI/ADR-RES ovarian = test system: NCI/ADR-RES ovarian
NCI-H522 lung = test system: NCI-H522 lung
SK-MEL-28 melanoma = test system: SK-MEL-28 melanoma
PC-3 prostate = test system: PC-3 prostate
NCI-H23 lung = test system: NCI-H23 lung
RXF 393 renal = test system: RXF 393 renal
MALME-3M melanoma = test system: MALME-3M melanoma
COLO 205 colon = test system: COLO 205 colon
CCRF-CEM leukemia = test system: CCRF-CEM leukemia
HCT-15 colon = test system: HCT-15 colon
MCF7 breast = test system: MCF7 breast
HT29 colon = test system: HT29 colon
ACHN renal = test system: ACHN renal
HS 578T breast = test system: HS 578T breast
NCI-H226 lung = test system: NCI-H226 lung
SNB-75 CNS = test system: SNB-75 CNS
KM12 colon = test system: KM12 colon
UACC-62 melanoma = test system: UACC-62 melanoma
786-0 renal = test system: 786-0 renal
U251 CNS = test system: U251 CNS
SR leukemia = test system: SR leukemia
LOX IMVI melanoma = test system: LOX IMVI melanoma
MOLT-4 leukemia = test system: MOLT-4 leukemia
HOP-62 NSCLC = test system: HOP-62 NSCLC
SN12C renal = test system: SN12C renal
SK-MEL-5 melanoma = test system: SK-MEL-5 melanoma
OVCAR-5 ovarian = test system: OVCAR-5 ovarian
EKVX NSCLC = test system: EKVX NSCLC
HL-60(TB) leukemia = test system: HL-60(TB) leukemia
UACC-257 melanoma = test system: UACC-257 melanoma
SF-268 CNS = test system: SF-268 CNS
DU-145 prostate = test system: DU-145 prostate
MDA-MB-231 breast = test system: MDA-MB-231 breast
UO-31 renal = test system: UO-31 renal

**Q.** For `O=C(N/N=C/c1c(Cl)cccc1Cl)c1cccnc1Nc1cccc(C(F)(F)F)c1`, which GI50 (HOP-92 NSCLC) is on record?
**A.** 4.01 µM

**Q.** What about the TGI (HOP-92 NSCLC) of the same compound?
**A.** 25.5 µM

**Q.** What about the GI50 (A549 NSCLC) of the same compound?
**A.** 4.69 µM

**Q.** What about the TGI (A549 NSCLC) of the same compound?
**A.** > 100 µM

**Q.** What about the GI50 (HCT-116 colon) of the same compound?
**A.** 1.53 µM

**Q.** And the TGI (HCT-116 colon)?
**A.** 18.1 µM

**Q.** And the GI50 (HCC-2998 colon)?
**A.** 3.86 µM

**Q.** What about the TGI (HCC-2998 colon) of the same compound?
**A.** > 100 µM

**Q.** And the GI50 (SF-295 CNS)?
**A.** 1.78 µM

**Q.** What about the TGI (SF-295 CNS) of the same compound?
**A.** 14 µM

**Q.** And the GI50 (MDA-MB-435)?
**A.** 3.8 µM

**Q.** And the TGI (MDA-MB-435)?
**A.** > 100 µM

**Q.** What about the GI50 (OVCAR-8 ovarian) of the same compound?
**A.** 3.49 µM

**Q.** And the TGI (OVCAR-8 ovarian)?
**A.** > 100 µM

**Q.** And the GI50 (T-47D breast)?
**A.** 2.65 µM

**Q.** And the TGI (T-47D breast)?
**A.** 71 µM

**Q.** What about the GI50 (SF-539 CNS) of the same compound?
**A.** 4.28 µM

**Q.** What about the TGI (SF-539 CNS) of the same compound?
**A.** 19.5 µM

**Q.** What about the GI50 (SK-OV-3 ovarian) of the same compound?
**A.** 3.77 µM

**Q.** What about the TGI (SK-OV-3 ovarian) of the same compound?
**A.** 30.2 µM

**Q.** What about the GI50 (OVCAR-3 ovarian) of the same compound?
**A.** 2.72 µM

**Q.** What about the TGI (OVCAR-3 ovarian) of the same compound?
**A.** 27.5 µM

**Q.** And the GI50 (M14 melanoma)?
**A.** 2.72 µM

**Q.** What about the TGI (M14 melanoma) of the same compound?
**A.** 17.1 µM

**Q.** What about the GI50 (OVCAR-4 ovarian) of the same compound?
**A.** 0.941 µM

**Q.** What about the TGI (OVCAR-4 ovarian) of the same compound?
**A.** 48.3 µM

**Q.** What about the GI50 (RPMI-8226 leukemia) of the same compound?
**A.** 0.717 µM

**Q.** And the TGI (RPMI-8226 leukemia)?
**A.** 4.88 µM

**Q.** What about the GI50 (BT-549 breast) of the same compound?
**A.** 3.28 µM

**Q.** And the TGI (BT-549 breast)?
**A.** 55.5 µM

**Q.** And the GI50 (SNB-19 CNS)?
**A.** 4.62 µM

**Q.** And the TGI (SNB-19 CNS)?
**A.** > 100 µM

**Q.** What about the GI50 (IGROV1 ovarian) of the same compound?
**A.** 2.41 µM

**Q.** What about the TGI (IGROV1 ovarian) of the same compound?
**A.** 54.9 µM

**Q.** And the GI50 (SW-620 colon)?
**A.** 1.66 µM

**Q.** And the TGI (SW-620 colon)?
**A.** > 100 µM

**Q.** What about the GI50 (A498 renal) of the same compound?
**A.** 3.13 µM

**Q.** And the TGI (A498 renal)?
**A.** 32.8 µM

**Q.** What about the GI50 (TK-10 renal) of the same compound?
**A.** 4.4 µM

**Q.** What about the TGI (TK-10 renal) of the same compound?
**A.** 79.2 µM

**Q.** And the GI50 (NCI-H460 lung)?
**A.** 2.04 µM

**Q.** And the TGI (NCI-H460 lung)?
**A.** 35.3 µM

**Q.** And the GI50 (K-562 leukemia)?
**A.** 3.57 µM

**Q.** And the TGI (K-562 leukemia)?
**A.** > 100 µM

**Q.** And the GI50 (SK-MEL-2 melanoma)?
**A.** 11.1 µM

**Q.** And the TGI (SK-MEL-2 melanoma)?
**A.** 56.1 µM

**Q.** What about the GI50 (NCI/ADR-RES ovarian) of the same compound?
**A.** 1.7 µM

**Q.** What about the TGI (NCI/ADR-RES ovarian) of the same compound?
**A.** 44.6 µM

**Q.** And the GI50 (NCI-H522 lung)?
**A.** 2.55 µM

**Q.** What about the TGI (NCI-H522 lung) of the same compound?
**A.** 15 µM

**Q.** What about the GI50 (SK-MEL-28 melanoma) of the same compound?
**A.** 3.03 µM

**Q.** And the TGI (SK-MEL-28 melanoma)?
**A.** 40.4 µM

**Q.** What about the GI50 (PC-3 prostate) of the same compound?
**A.** 2.79 µM

**Q.** And the TGI (PC-3 prostate)?
**A.** > 100 µM

**Q.** What about the GI50 (NCI-H23 lung) of the same compound?
**A.** 6.35 µM

**Q.** What about the TGI (NCI-H23 lung) of the same compound?
**A.** > 100 µM

**Q.** And the GI50 (RXF 393 renal)?
**A.** 6.53 µM

**Q.** And the TGI (RXF 393 renal)?
**A.** 38.6 µM

**Q.** What about the GI50 (MALME-3M melanoma) of the same compound?
**A.** 2.95 µM

**Q.** And the TGI (MALME-3M melanoma)?
**A.** 10.8 µM

**Q.** What about the GI50 (COLO 205 colon) of the same compound?
**A.** 2.9 µM

**Q.** And the TGI (COLO 205 colon)?
**A.** 37.9 µM

**Q.** What about the GI50 (CCRF-CEM leukemia) of the same compound?
**A.** 0.323 µM

**Q.** And the TGI (CCRF-CEM leukemia)?
**A.** 10.8 µM

**Q.** What about the GI50 (HCT-15 colon) of the same compound?
**A.** 0.668 µM

**Q.** What about the TGI (HCT-15 colon) of the same compound?
**A.** > 100 µM

**Q.** And the GI50 (MCF7 breast)?
**A.** 3.92 µM

**Q.** And the TGI (MCF7 breast)?
**A.** > 100 µM

**Q.** And the GI50 (HT29 colon)?
**A.** 4.7 µM

**Q.** And the TGI (HT29 colon)?
**A.** > 100 µM

**Q.** And the GI50 (ACHN renal)?
**A.** 3.04 µM

**Q.** And the TGI (ACHN renal)?
**A.** 20.8 µM

**Q.** And the GI50 (HS 578T breast)?
**A.** 3.59 µM

**Q.** What about the TGI (HS 578T breast) of the same compound?
**A.** 26.2 µM

**Q.** And the GI50 (NCI-H226 lung)?
**A.** 2.44 µM

**Q.** And the TGI (NCI-H226 lung)?
**A.** 21.9 µM

**Q.** And the GI50 (SNB-75 CNS)?
**A.** 3.9 µM

**Q.** And the TGI (SNB-75 CNS)?
**A.** 24.8 µM

**Q.** And the GI50 (KM12 colon)?
**A.** 3.24 µM

**Q.** What about the TGI (KM12 colon) of the same compound?
**A.** 57.3 µM

**Q.** And the GI50 (UACC-62 melanoma)?
**A.** 2.46 µM

**Q.** What about the TGI (UACC-62 melanoma) of the same compound?
**A.** 9.64 µM

**Q.** And the GI50 (786-0 renal)?
**A.** 3.87 µM

**Q.** And the TGI (786-0 renal)?
**A.** 27.9 µM

**Q.** What about the GI50 (U251 CNS) of the same compound?
**A.** 1.47 µM

**Q.** What about the TGI (U251 CNS) of the same compound?
**A.** 11.6 µM

**Q.** And the GI50 (SR leukemia)?
**A.** 2.57 µM

**Q.** And the TGI (SR leukemia)?
**A.** 28.5 µM

**Q.** What about the GI50 (LOX IMVI melanoma) of the same compound?
**A.** 1.83 µM

**Q.** And the TGI (LOX IMVI melanoma)?
**A.** 19 µM

**Q.** And the GI50 (MOLT-4 leukemia)?
**A.** 0.942 µM

**Q.** And the TGI (MOLT-4 leukemia)?
**A.** > 100 µM

**Q.** And the GI50 (HOP-62 NSCLC)?
**A.** 3.97 µM

**Q.** And the TGI (HOP-62 NSCLC)?
**A.** 20.8 µM

**Q.** What about the GI50 (SN12C renal) of the same compound?
**A.** 2.58 µM

**Q.** What about the TGI (SN12C renal) of the same compound?
**A.** 98.9 µM

**Q.** What about the GI50 (SK-MEL-5 melanoma) of the same compound?
**A.** 2.34 µM

**Q.** And the TGI (SK-MEL-5 melanoma)?
**A.** 6.52 µM

**Q.** What about the GI50 (OVCAR-5 ovarian) of the same compound?
**A.** 4.43 µM

**Q.** And the TGI (OVCAR-5 ovarian)?
**A.** 47 µM

**Q.** What about the GI50 (EKVX NSCLC) of the same compound?
**A.** 2.25 µM

**Q.** What about the TGI (EKVX NSCLC) of the same compound?
**A.** 27.4 µM

**Q.** And the GI50 (HL-60(TB) leukemia)?
**A.** 3.15 µM

**Q.** What about the TGI (HL-60(TB) leukemia) of the same compound?
**A.** 34.1 µM

**Q.** What about the GI50 (UACC-257 melanoma) of the same compound?
**A.** 4.31 µM

**Q.** What about the TGI (UACC-257 melanoma) of the same compound?
**A.** > 100 µM

**Q.** And the GI50 (SF-268 CNS)?
**A.** 2.18 µM

**Q.** And the TGI (SF-268 CNS)?
**A.** > 100 µM

**Q.** And the GI50 (DU-145 prostate)?
**A.** 5.35 µM

**Q.** What about the TGI (DU-145 prostate) of the same compound?
**A.** > 100 µM

**Q.** And the GI50 (MDA-MB-231 breast)?
**A.** 5.16 µM

**Q.** What about the TGI (MDA-MB-231 breast) of the same compound?
**A.** 72 µM

**Q.** What about the GI50 (UO-31 renal) of the same compound?
**A.** 3 µM

**Q.** What about the TGI (UO-31 renal) of the same compound?
**A.** > 100 µM
